Experimental data reported in patent US20240025906A1 (NEURON23, INC., priority 2022, published 2024).
pIC50, pKd: −log10 of the molar value. Like-named read-outs stand apart in the source and are kept apart here.

How the values were obtained:
TYK2 JH2 = target: T1, TYK2 JH2 (Homo sapiens, UniProt P29597); test: TYK2 JH2 binding assay (KINOMEscan KdELECT competitive binding); settings: TYK2 JH2 domain
T1 construct: purchased DiscoverX (KINOMEscan KdELECT service); host or cells: E. coli BL21-derived (T7 phage display) or HEK-293
In short: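 The assay measures displacement of DNA- or phage-tagged TYK2 pseudokinase domain from an affinity resin; compound binding lowers the amount captured, read by qPCR. Incubation lasts 1 h at room temperature.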

[1] = system: JAK1/TYK2 pSTAT5 (Tyr694/699) in THP-1 cell line; test: IFNa-stimulated JAK1/TYK2 pSTAT5 (Tyr694/699) inhibition cellular assay, AlphaLISA; type: cell-based; settings: Homo sapiens, THP-1 cells, AlphaLISA (Assay B)
In short: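 Compound dilutions were dispensed first, and HBSS-suspended THP-1 cells were added on top (final top concentration 10000 nM, 6-fold series). After 1 h at 37 °C, IFNa (100 ng/mL as added) was applied for 30 min. Cells were then lysed and pSTAT5 was quantified by AlphaLISA.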

[2] = KINOMEscan KdELECT (Assay A), read-out: Biochemical TYK2_DiscoverX_JH2_BND_Kd
[3] = IFNa-stimulated pSTAT5 (Tyr694/699), read-out: Cellular_THP1_IFNa-pSTATS_TYK2
[4] = IFNa-stimulated, read-out: Cellular_THP1_IFNa-pSTATS_TYK2
[5] = KINOMEscan KdELECT (Assay A), read-out: Biochemical TYK2_JH2_Kd
[6] = IFNa-stimulated, read-out: Cellular THP1_IFNa-pSTATS_IC50
[7] = DiscoverX KINOMEscan KdELECT (Assay A), read-out: Biochemical TYK2_DiscoverX_JH2_BND_Kd

T1 sequence (P29597 589-875 limits assumed): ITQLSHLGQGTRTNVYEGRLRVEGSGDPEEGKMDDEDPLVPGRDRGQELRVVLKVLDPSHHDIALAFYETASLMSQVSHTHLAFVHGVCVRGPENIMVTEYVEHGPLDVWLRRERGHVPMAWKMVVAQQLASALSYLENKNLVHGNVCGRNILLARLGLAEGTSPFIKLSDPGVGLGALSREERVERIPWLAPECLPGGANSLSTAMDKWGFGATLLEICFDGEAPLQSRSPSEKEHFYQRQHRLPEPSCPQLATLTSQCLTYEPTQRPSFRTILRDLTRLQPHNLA

CNc1ncc(-c2nc3cc(N4C[C@@H](C)O[C@@H](C)C4)ccc3o2)c2cc(NC(=O)[C@@H]3C[C@@H]3F)ncc12 [Example 1062, (1S,2S)-N-[5-[5-[(2R,6S)-2,6-dimethylmorpholin-4-yl]-1,3-benzoxazol-2-yl]-8-(methylamino)-2,7-naphthyridin-3-yl]-2-fluoro-cyclopropanecarboxamide]
pKd (TYK2 JH2; [2]): ≥ 7.00 | pIC50 [1, 3]: ≥ 6.30

CNc1ncc(CCc2ccc3nnn(C)c3c2)c2cc(NC(=O)C3CC3)ncc12 [Example 866, N-(5-(2-(1-methyl-1H-benzo[d][1,2,3]triazol-6-yl)ethyl)-8-(methylamino)-2,7-naphthyridin-3-yl)cyclopropanecarboxamide]
pKd (TYK2 JH2; [2]): ≥ 7.00 | pIC50 [1, 4]: ≥ 6.30

CNc1ncc(-c2nc3ccc(N4CCO[C@H](C(C)(C)OC)C4)cn3n2)c2cc(NC(=O)C3CC3)ncc12 [Example 1033]
pKd (TYK2 JH2; [2]): ≥ 7.00 | pIC50 [1, 3]: ≥ 6.30

CNc1ncc(C#Cc2ccc(Oc3cn(C)c(C)n3)cc2)c2cc(NC(=O)C3CC3)ncc12 [Example 970, N-(5-((4-((1,2-dimethyl-1H-imidazol-4-yl)oxy)phenyl)ethynyl)-8-(methylamino)-2,7-naphthyridin-3-yl)cyclopropanecarboxamide]
pKd (TYK2 JH2; [2]): ≥ 7.00 | pIC50 [1, 4]: ≥ 6.30

CNc1ncc(C#Cc2ncccn2)c2cc(NC(=O)C3CC3)ncc12 [Example 950, N-(8-(methylamino)-5-(pyrimidin-2-ylethynyl)-2,7-naphthyridin-3-yl)cyclopropanecarboxamide]
pKd (TYK2 JH2; [2]): ≥ 7.00 | pIC50 [1, 4]: ≥ 6.30

CNc1ncc(-c2nc3cc(N4CC(C)(O)C4)ccc3o2)c2cc(NC(=O)C3CC3)ncc12 [Example 927, N-(5-(5-(3-hydroxy-3-methylazetidin-1-yl)benzo[d]oxazol-2-yl)-8-(methylamino)-2,7-naphthyridin-3-yl)cyclopropanecarboxamide]
pKd (TYK2 JH2; [2]): ≥ 7.00 | pIC50 [1, 4]: ≥ 6.30

CNc1ncc(/C=C/c2ccc(OC)cc2)c2cc(NC(=O)C3CC3)ncc12 [Example 135, (E)-N-(5-(4-methoxystyryl)-8-(methylamino)-2,7-naphthyridin-3-yl)cyclopropanecarboxamide]
pKd (TYK2 JH2; [5]): ≥ 7.00 | pIC50 [1, 6]: ≥ 6.30

CNc1ncc(/C=C/c2ccc(OCC(C)(C)O)cc2)c2cc(NC(=O)C3CC3)ncc12 [Example 784, (E)-N-(5-(4-(2-hydroxy-2-methylpropoxy)styryl)-8-(methylamino)-2,7-naphthyridin-3-yl)cyclopropanecarboxamide]
pKd (TYK2 JH2; [2]): ≥ 7.00 | pIC50 [1, 4]: ≥ 6.30

CNc1ncc(-c2nc3cc(N4CCCC5(CCO5)C4)ccc3o2)c2cc(NC(=O)C3CC3)ncc12 (centres unmarked) [Example 313, N-(5-(5-(1-oxa-6-azaspiro[3.5]nonan-6-yl)benzo[d]oxazol-2-yl)-8-(methylamino)-2,7-naphthyridin-3-yl)cyclopropanecarboxamide]
pKd (TYK2 JH2; [7]): ≥ 7.00 | pIC50 [1, 4]: ≥ 6.30

CCNc1ncc(-c2nc3cc(N4CCO[C@@H](C)C4)ccc3o2)c2cc(NC(=O)C3CC3)ncc12 [Example 366, (S)—N-(8-(ethylamino)-5-(5-(2-methylmorpholino)benzo[d]oxazol-2-yl)-2,7-naphthyridin-3-yl)cyclopropanecarboxamide]
pKd (TYK2 JH2; [7]): ≥ 7.00 | pIC50 [1, 4]: ≥ 6.30

CNc1ncc(C#Cc2ccc3nc4n(c3c2)CCC(F)=C4)c2cc(NC(=O)C3CC3)ncc12 [Example 809, N-(5-((3-fluoro-1,2-dihydrobenzo[4,5]imidazo[1,2-a]pyridin-8-yl)ethynyl)-8-(methylamino)-2,7-naphthyridin-3-yl)cyclopropanecarboxamide]
pKd (TYK2 JH2; [2]): ≥ 7.00 | pIC50 [1, 4]: ≥ 6.30

CNc1ncc(C#Cc2ccc(OC3CN(C(C)=O)C3)cc2)c2cc(NC(=O)C3(F)CC3)nnc12 [Example 915, N-(5-((4-((1-acetylazetidin-3-yl)oxy)phenyl)ethynyl)-8-(methylamino)pyrido[3,4-c]pyridazin-3-yl)-1-fluorocyclopropane-1-carboxamide]
pKd (TYK2 JH2; [2]): ≥ 7.00 | pIC50 [1, 4]: < 6.30

CNc1ncc(C#Cc2cccc(O)c2)c2cc(NC(=O)C3CC3)ncc12 [Example 593, N-(5-((3-hydroxyphenyl)ethynyl)-8-(methylamino)-2,7-naphthyridin-3-yl)cyclopropanecarboxamide]
pKd (TYK2 JH2; [2]): ≥ 7.00 | pIC50 [1, 4]: ≥ 6.30

CNc1ncc(-c2nc3cc(OC)ccc3s2)c2cc(NC(=O)C3CC3)ncc12 [Example 930, N-(5-(5-methoxybenzo[d]thiazol-2-yl)-8-(methylamino)-2,7-naphthyridin-3-yl)cyclopropanecarboxamide]
pKd (TYK2 JH2; [2]): ≥ 7.00 | pIC50 [1, 4]: ≥ 6.30

CNc1ncc(C#Cc2ccc(OC)cn2)c2cc(NC(=O)[C@H]3C[C@H]3C)ncc12 [Example 742, (1S,2R)—N-(5-((5-methoxypyridin-2-yl)ethynyl)-8-(methylamino)-2,7-naphthyridin-3-yl)-2-methylcyclopropane-1-carboxamide]
pKd (TYK2 JH2; [2]): ≥ 7.00 | pIC50 [1, 4]: ≥ 6.30

CNc1ncc(-c2nc3c(F)cccn3n2)c2cc(NC(=O)C3CC3)nnc12 [Example 887, N-(5-(8-fluoro-[1,2,4]triazolo[1,5-a]pyridin-2-yl)-8-(methylamino)pyrido[3,4-c]pyridazin-3-yl)cyclopropanecarboxamide]
pKd (TYK2 JH2; [2]): ≥ 7.00 | pIC50 [1, 4]: ≥ 6.30

CNc1ncc(-c2cccc(OC)c2)c2cc(NC(=O)C3CC3)ncc12 [Example 12, N-(5-(3-methoxyphenyl)-8-(methylamino)-2,7-naphthyridin-3-yl)cyclopropanecarboxamide]
pKd (TYK2 JH2; [5]): ≥ 7.00 | pIC50 [1, 6]: < 6.30

CNc1ncc(C#Cc2ccc(OCC3(C)COC3)cc2)c2cc(NC(=O)C3CC3)ncc12 [Example 701, N-(8-(methylamino)-5-((4-((3-methyloxetan-3-yl)methoxy)phenyl)ethynyl)-2,7-naphthyridin-3-yl)cyclopropanecarboxamide]
pKd (TYK2 JH2; [2]): ≥ 7.00 | pIC50 [1, 4]: ≥ 6.30

CNc1ncc(-c2nc3cc(N4C[C@H](C)O[C@@H](C)C4)ccc3o2)c2cc(NC(=O)[C@H]3C[C@H]3C)ncc12 [Example 1068, (1S,2R)-N-[5-[5-[(2S,6S)-2,6-dimethylmorpholin-4-yl]-1,3-benzoxazol-2-yl]-8-(methylamino)-2,7-naphthyridin-3-yl]-2-methyl-cyclopropanecarboxamide]
pKd (TYK2 JH2; [2]): ≥ 7.00 | pIC50 [1, 3]: ≥ 6.30

[2H]C1([2H])Oc2ccc(C#Cc3cnc(NC)c4cnc(NC(=O)C5CC5)cc34)cc2O1 [Example 812, N-(5-((benzo[d][1,3]dioxol-5-yl-2,2-d2)ethynyl)-8-(methylamino)-2,7-naphthyridin-3-yl)cyclopropanecarboxamide]
pKd (TYK2 JH2; [2]): ≥ 7.00 | pIC50 [1, 4]: ≥ 6.30

CNc1ncc(C#Cc2ccc3c(c2)OC(C)CO3)c2cc(NC(=O)C3CC3)ncc12 (centres unmarked) [Example 1005, N-(5-((3-methyl-2,3-dihydrobenzo[b][1,4]dioxin-6-yl)ethynyl)-8-(methylamino)-2,7-naphthyridin-3-yl)cyclopropanecarboxamide]
pKd (TYK2 JH2; [2]): ≥ 7.00 | pIC50 [1, 3]: ≥ 6.30

CCNc1ncc(-c2nc3cc(N4CC5CN(C)CC(C4)O5)ccc3o2)c2cc(NC(=O)C3CC3)ncc12 [Example 457, N-(8-(ethylamino)-5-(5-(7-methyl-9-oxa-3,7-diazabicyclo[3.3.1]nonan-3-yl)benzo[d]oxazol-2-yl)-2,7-naphthyridin-3-yl)cyclopropanecarboxamide]
pKd (TYK2 JH2; [7]): ≥ 7.00 | pIC50 [1, 4]: ≥ 6.30

CNc1ncc(C#Cc2cnco2)c2cc(NC(=O)C3CC3)ncc12 [Example 600, N-(8-(methylamino)-5-(oxazol-5-ylethynyl)-2,7-naphthyridin-3-yl)cyclopropanecarboxamide]
pKd (TYK2 JH2; [2]): ≥ 7.00 | pIC50 [1, 4]: ≥ 6.30

COc1ccc2oc(-c3cnc(NCC(F)F)c4cnc(NC(=O)C5CC5)cc34)nc2c1 [Example 370, N-(8-((2,2-difluoroethyl)amino)-5-(5-methoxybenzo[d]oxazol-2-yl)-2,7-naphthyridin-3-yl)cyclopropanecarboxamide]
pKd (TYK2 JH2; [7]): ≥ 7.00 | pIC50 [1, 4]: ≥ 6.30

[2H]C([2H])([2H])Nc1ncc(-c2nc3cc(OCC4CC4)ccc3o2)c2cc(NC(=O)C3CC3)ncc12 [Example 454, N-(5-(5-(cyclopropylmethoxy)benzo[d]oxazol-2-yl)-8-((methyl-d3)amino)-2,7-naphthyridin-3-yl)cyclopropanecarboxamide]
pKd (TYK2 JH2; [7]): ≥ 7.00 | pIC50 [1, 4]: ≥ 6.30

CNc1ncc(Nc2ccccc2)c2cc(NC(=O)C3CC3)ncc12 [Example 134, N-(8-(methylamino)-5-(phenylamino)-2,7-naphthyridin-3-yl)cyclopropanecarboxamide]
pKd (TYK2 JH2; [5]): 6.00 to 7.00 | pIC50 [1, 6]: < 6.30

CCc1ncc(-c2ccccc2)c2cc(NC(=O)C3CC3)ncc12 [Example 96, N-(8-ethyl-5-phenyl-2,7-naphthyridin-3-yl)cyclopropanecarboxamide]
pKd (TYK2 JH2; [5]): ≥ 7.00 | pIC50 [1, 6]: < 6.30

CNc1ncc(-c2ccn(CCc3ncn(C)n3)n2)c2cc(NC(=O)C3CC3)ncc12 [Example 835A, N-(5-(1-(2-(1-methyl-1H-1,2,4-triazol-3-yl)ethyl)-1H-pyrazol-3-yl)-8-(methylamino)-2,7-naphthyridin-3-yl)cyclopropanecarboxamide]
pKd (TYK2 JH2; [2]): ≥ 7.00 | pIC50 [1, 4]: < 6.30
